According to patent publication US7306938B2, “High throughput screen for inhibitors of fatty acid biosynthesis in bacteria” (priority 1999, dated 2007):
Values after ≈ are worked out from the molar mass of the structure shown.

Key:
[1] = tested on: B. subtilis reporter strains PY79(amy::PyhfB::lacZ, cat) and PY79(amy::PylpC::lacZ, cat); assay: Minimum inhibitory concentration (MIC) determination in 96-well microtiter plate, OD600 read; type: cell-based; settings: Bacillus subtilis, 18 h, read-out: minimum inhibitory concentration (MIC)
Procedure: The minimum inhibitory concentrations (MIC) for cerulenin and triclosan were determined for each of the reporter strains. To determine the MIC, a compound of interest (e.g., cerulenin or triclosan) was placed in a 96-well microtiter plate such that the concentration of the compound varies in various wells of the plate (e.g., by using a series of 2-fold dilutions of the compound). Approximately 5,000 cells from a logarithmically-growing culture (e.g., the B. subtilis strain PY79) in Luria broth were added to each well (e.g., in a volume of 50-80 μl). The plate then was incubated at 37° C. for approximately 18 hours. The OD600 was then read to measure cell growth in each well of the plate. The lowest concentration of the compound that leads to complete killing of the culture (i.e., the concentration of compound for which the OD600 nm is equal to a control well that contains only media and the test compound) is deemed the MIC for the particular compound and bacterial strain. The MICs for cerulenin and triclosan were 12.5 μg/ml and 5 μg/ml, respectively, for both of the reporter strains. Such inhibitors can be used as lead compounds, which can subsequently be derivatized using standard medicinal chemistry techniques to produce antibacterial agents.

[2] = tested on: PyhfB, PyjaXY, PylpC, and PyydK promoters; assay: RNA (transcriptional) profiling of bacterial cells treated with FAB pathway inhibitors; type: cell-based, B. subtilis; settings: cerulenin 0.5 or 5 μg/ml, triclosan 0.1 or 1 μg/ml; LB medium, 37° C., 10, 30, or 60 minutes
From the text: Genetic Constructs: Conventional transcriptional profiling methods can be used to identify promoters that have increased activity in the presence of antibacterial agents such as cerulenin and triclosan, which are inhibitors of FAB.

PyhfB promoter = assay: lacZ reporter assay of promoter induction, strain PY79(amy::PyhfB::lacZ, cat); type: cell-based, B. subtilis; settings: various concentrations, 96-well microplate, 3 hours (FIG. 7)
From the text: (§1) Clones containing the PyhfB, PyjaXY, and PylpC promoters have been described in GenBank, and the accession numbers for these clones are set forth in Table 2.
(§2) The reporter strains used in these assays were constructed as follows. PCR products containing the promoters were digested with EcoRI and BamHI, and cloned into the multiple cloning site of pDG268, which also had been digested with EcoRI and BamHI. The plasmid pDG268 is a derivative of pGD364 (See, Cutting and Van der Horn, Molecular Biological Methods for Bacillus, eds. C. R. Harwood and S. M. Cutting, 1990, John Wiley and Sons, NY, N.Y., pp. 52-54). […]
(§3) The reporter strains were incubated, separately, with triclosan or cerulenin at various concentrations, as shown on the X-axes depicted in FIGS. 7 and 8. Each strain and an antibacterial agent were incubated in a 96-well microplate for 3 hours. β-galactosidase activity was detected using the Tropix Galacton Star™ chemiluminescent substrate (3-chloro-5-(4-methoxyspiro{1,2-dioxetane-3,2′-(4′chloro)-tricyclo-[3.3.1.1^3,7]decan}-4-yl)phenyl-B-D-galactopyranoside) and the detection method described below. The fold induction of promoter activity was calculated as the level of activity in the samples containing the antibacterial agent divided by the level of activity in the samples that lacked the agent. […]

PylpC promoter = assay: lacZ reporter assay of promoter induction, strain PY79(amy::PylpC::lacZ, cat); type: cell-based, B. subtilis; settings: various concentrations, 96-well microplate, 3 hours (FIG. 8)
From the text: as §1, §2, §3

Row | Structure (SMILES) | MIC [1] | activity of the PyhfB, PyjaXY, PylpC, and PyydK promoters (RNA profiling) [2] | activity of the PyhfB promoter (lacZ reporter, β-galactosidase chemiluminescence) (PyhfB promoter) | activity of the PylpC promoter (lacZ reporter, β-galactosidase chemiluminescence) (PylpC promoter)
1 | Oc1cc(Cl)ccc1Oc1ccc(Cl)cc1Cl [triclosan] | 5 µg/mL (≈ 17.3 µM) | increase in activity | increase the activity | increase the activity
2 | C/C=C/C/C=C/CCC(=O)[C@H]1O[C@H]1C(N)=O [cerulenin, 2,3-Epoxy-4-oxo-7,1-dodecadienamide] | 12.5 µg/mL (≈ 56 µM) | increase in activity | increase the activity | increase the activity
